Experimental data: patent US7485657B2, “Anti-cytokine heterocyclic compounds” (Boehringer Ingelheim Pharmaceuticals, Inc., priority 2004, dated 2009)
Structures can show the parent of a compound that is named as a salt.

melting point	SMILES
127 to 133 °C	COc1c(NC(=O)c2ccc(C)c(-n3cc(C(=O)NCc4cccnc4)cn3)c2)cc(C(C)(C)C)cc1NS(C)(=O)=O [Example 4, 1-[5-(5-tert-Butyl-3-methanesulfonylamino-2-methoxy-phenylcarbamoyl)-2-methyl-phenyl]-1H-pyrazole-4-carboxylic acid (pyridin-3-ylmethyl)-amide]
104 to 111 °C (dec.)	CCOC(=O)c1cc(N)n(-c2cc(C(=O)Nc3cc(C(C)(C)C)cc(NS(C)(=O)=O)c3OC)ccc2C)n1 (as salt: TFA) [Example 1, 5-amino-1-[5-(5-tert-butyl-3-methanesulfonylamino-2-methoxy-phenylcarbamoyl)-2-methyl-phenyl]-1H-pyrazole-3-carboxylic acid ethyl ester]
125 to 130 °C	CCOC(=O)c1cnn(-c2cc(C(=O)Nc3cc(C(C)(C)C)cc(NS(C)(=O)=O)c3OC)ccc2C)c1 [Example 2, 1-[5-(5-tert-butyl-3-methanesulfonylamino-2-methoxy-phenylcarbamoyl)-2-methyl-phenyl]-1H-pyrazole-4-carboxylic acid ethyl ester]
